Molecular target: cGMP-specific 3',5'-cyclic phosphodiesterase PDE V (Sus scrofa)
Experiment: Inhibitory potency against pig aortic PDE V.

Row | Compound | IC50
1 | COc1ccc(C(=O)Nc2ccccc2Br)cc1OC1CCCC1 [N-(2-Bromo-phenyl)-3-cyclopentyloxy-4-methoxy-benzamide] | > 1000 µM
2 | COC(=O)c1ccccc1NC(=O)c1ccc(OC)c(OC2CCCC2)c1 [2-(3-Cyclopentyloxy-4-methoxy-benzoylamino)-benzoic acid methyl ester] | 5.5 µM
3 | COc1ccc(C(=O)Nc2ccccc2C(=O)c2ccccc2)cc1OC1CCCC1 [N-(2-Benzoyl-phenyl)-3-cyclopentyloxy-4-methoxy-benzamide] | 2.5 µM
4 | COc1ccc(C(=O)Nc2ccccc2SC)cc1OC1CCCC1 [3-Cyclopentyloxy-4-methoxy-N-(2-methylsulfanyl-phenyl)-benzamide] | > 200 µM
5 | COc1ccc(C(=O)Nc2cccc(Cl)c2Cl)cc1OC1CCCC1 [3-Cyclopentyloxy-N-(2,3-dichloro-phenyl)-4-methoxy-benzamide] | > 200 µM
6 | COc1ccc(C(=O)Nc2c(F)cccc2F)cc1OC1CCCC1 [3-Cyclopentyloxy-N-(2,6-difluoro-phenyl)-4-methoxy-benzamide] | > 1000 µM
7 | COc1ccc(C(=O)Nc2ccc(F)cc2)cc1OC1CCCC1 [3-Cyclopentyloxy-N-(4-fluoro-phenyl)-4-methoxy-benzamide] | > 1000 µM
8 | COc1ccc(C(=O)Nc2ccccc2Cl)cc1OC1CCCC1 [N-(2-Chloro-phenyl)-3-cyclopentyloxy-4-methoxy-benzamide] | > 200 µM
9 | COc1ccc(C(=O)Nc2c(C)cccc2Cl)cc1OC1CCCC1 [N-(2-Chloro-6-methyl-phenyl)-3-cyclopentyloxy-4-methoxy-benzamide] | > 1000 µM
10 | COc1ccc(C(=O)Nc2ccc(Cl)cc2)cc1OC1CCCC1 [N-(4-Chloro-phenyl)-3-cyclopentyloxy-4-methoxy-benzamide] | > 1000 µM
11 | COc1ccc(C(=O)Nc2ccccc2C(F)(F)F)cc1OC1CCCC1 [3-Cyclopentyloxy-4-methoxy-N-(2-trifluoromethyl-phenyl)-benzamide] | > 1000 µM
12 | COc1ccc(C(=O)Nc2cccc(Cl)c2)cc1OC1CCCC1 [N-(3-Chloro-phenyl)-3-cyclopentyloxy-4-methoxy-benzamide] | > 40 µM
13 | COc1ccc(C(=O)Nc2c(F)cccc2Cl)cc1OC1CCCC1 [N-(2-Chloro-6-fluoro-phenyl)-3-cyclopentyloxy-4-methoxy-benzamide] | > 1000 µM
14 | COc1ccc(C(=O)Nc2ccccc2F)cc1OC1CCCC1 [3-(cyclopentyloxy)-N-(2-fluorophenyl)-4-methoxybenzamide] | > 1000 µM
15 | COc1ccc(C(=O)Nc2ccccc2O)cc1OC1CCCC1 [3-Cyclopentyloxy-N-(2-hydroxy-phenyl)-4-methoxy-benzamide] | 175 µM
16 | COc1ccc(C(=O)Nc2ccccc2C)cc1OC1CCCC1 [3-Cyclopentyloxy-4-methoxy-N-o-tolyl-benzamide] | > 1000 µM
17 | COc1ccc(C(=O)Nc2ccc(C)cc2)cc1OC1CCCC1 [3-Cyclopentyloxy-4-methoxy-N-p-tolyl-benzamide] | > 200 µM

From BindingDB's records for doi:10.1021/jm00037a021 (Rhône-Poulenc Rorer, 1994)
